Assay results taken from patent US9845321B2, “1,3-dihydro-2H-benzimidazol-2-one derivatives substituted with heterocycles as respiratory syncytial virus antiviral agents” (JANSSEN SCIENCES IRELAND UC, priority 2012, dated 2017).

Legend:
in vitro = type: cell-based; details: human
Protocol: (§1) Black 96-well clear-bottom microtiter plates (Corning, Amsterdam, The Netherlands) were filled in duplicate using a customized robot system with serial 4-fold dilutions of compound in a final volume of 50 μl culture medium [RPMI medium without phenol red, 10% FBS, 0.04% gentamycin (50 mg/ml) and 0.5% DMSO]. Then, 100 μl of a HeLa cell suspension (5×10^4 cells/ml) in culture medium was added to each well followed by the addition of 50 μl rgRSV224 (MOI=0.02) virus in culture medium using a multidrop dispenser (Thermo Scientific, Erembodegem, Belgium). rgRSV224 virus is an engineered virus that includes an additional GFP gene (Hallak et al, 2000) and was in-licensed from the NIH (Bethesda, Md., USA). Medium, virus- and mock-infected controls were included in each test. Cells were incubated at 37° C. in a 5% CO2 atmosphere. Three days post-virus exposure, viral replication was quantified by measuring GFP expression in the cells by a MSM laser microscope (Tibotec, Beerse, Belgium). The EC50 was defined as the 50% inhibitory concentration for GFP expression. In parallel, compounds were incubated for three days in a set of white 96-well microtitier plates (Corning) and the cytotoxicity of compounds in HeLa cells was determined by measuring the ATP content of the cells using the ATPlite kit (PerkinElmer, Zaventem, Belgium) according to the manufacturer's instructions. The CC50 was defined as the 50% concentration for cytotoxicity.

rgRSV224 virus = experiment: Antiviral activity: rgRSV224 (GFP-expressing RSV) replication in HeLa cells, GFP expression measured three days post-virus exposure; type: cell-based; details: human respiratory syncytial virus, 72 h, read-out: WT activity pEC50 (converted)
Protocol: as §1

With CS(=O)(=O)CCCn1c(Cn2c(=O)n(C3CNC3)c3ccc(F)cc32)cc2cc(Cl)ccc21 [Compound P3, 1-(azetidin-3-yl)-3-((5-chloro-1-(3-(methylsulfonyl)propyl)-1H-indol-2-yl)methyl)-5-fluoro-1H-benzo[d]imidazol-2(3H)-one] the CC50 at 3 days (in vitro) was 12600 nM and the EC50 (rgRSV224 virus) was 100 nM.
In the case of CS(=O)(=O)CCCn1c(Cn2c(=O)n(C3CNC3)c3ccncc32)cc2cc(Cl)ccc21 [Compound P4, 1-(azetidin-3-yl)-3-((5-chloro-1-(3-(methylsulfonyl)propyl)-1H-indol-2-yl)methyl)-1H-imidazo[4,5-c]pyridin-2(3H)-one], the CC50 at 3 days (in vitro) is reported as greater than 100000 nM and the EC50 (rgRSV224 virus) is reported as 31.6 nM.
Work on CC1(n2c(=O)n(Cc3cc4cc(Cl)ccc4n3CCCS(C)(=O)=O)c3cnccc32)CC1 [Compound P7, 3-((5-chloro-1-(3-(methylsulfonyl)propyl)-1H-indol-2-yl)methyl)-1-(1-methylcyclopropyl)-1H-imidazo[4,5-c]pyridin-2(3H)-one] yielded a CC50 at 3 days (in vitro) of 50100 nM and an EC50 (rgRSV224 virus) of 0.501 nM.
In the case of CC1(n2c(=O)n(Cc3nc4nc(Cl)ccc4n3CCCC(F)(F)F)c3cnccc32)CC1 [Compound P9, 3-((5-chloro-1-(4,4,4-trifluorobutyl)-1H-imidazo[4,5-b]pyridin-2-yl)methyl)-1-(1-methylcyclopropyl)-1H-imidazo[4,5-c]pyridin-2(3H)-one], the CC50 at 3 days (in vitro) is reported as greater than 100000 nM and the EC50 (rgRSV224 virus) is reported as 1 nM.
For CC(C)(O)CN1CC(n2c(=O)n(Cc3cc4cc(Cl)ccc4n3CCCS(C)(=O)=O)c3cc(F)ccc32)C1 [Compound P12, 3-((5-chloro-1-(3(methylsulfonyl)propyl)-1H-indol-2-yl)methyl)-5-fluoro-1-(1-(2-hydroxy-2-methylpropyl)azetidin-3-yl)-1H-benzo[d]imidazol-2(3H)-one], the CC50 at 3 days (in vitro) was 12600 nM and the EC50 (rgRSV224 virus) was 39.8 nM.
With COc1ccc(-n2c(=O)n(Cc3cc4cc(Cl)ccc4n3CCCC#N)c3cnccc32)cc1 [Compound P14, 4-(5-chloro-2-((1-(4-methoxyphenyl)-2-oxo-1H-imidazo[4,5-c]pyridin-3(2H)-yl)methyl)-1H-indol-1-yl)butanenitrile] the CC50 at 3 days (in vitro) was 12600 nM and the EC50 (rgRSV224 virus) was 0.398 nM.
COc1ccc(-n2c(=O)n(Cc3cc4cc(Cl)ccc4n3CCCC#N)c3cnccc32)cc1F [Compound P15, 4-(5-chloro-2-((1-(3-fluoro-4-methoxyphenyl)-2-oxo-1H-imidazo[4,5-c]pyridin-3(2H)-yl)methyl)-1H-indol-1-yl)butanenitrile] gave a CC50 at 3 days (in vitro) greater than 100000 nM and an EC50 (rgRSV224 virus) of 1 nM.
COc1ccc(-n2c(=O)n(Cc3nc4nc(Cl)ccc4n3CCC(C)C)c3cnccc32)cc1 [Compound P16, 3-((5-chloro-1-isopentyl-1H-imidazo[4,5-b]pyridin-2-yl)methyl)-1-(4-methoxyphenyl)-1H-imidazo[4,5-c]pyridin-2(3H)-one] gave a CC50 at 3 days (in vitro) greater than 50100 nM and an EC50 (rgRSV224 virus) of 1 nM.
Work on COc1ccc(-n2c(=O)n(Cc3cc4nc(Cl)ccc4n3CCCC(F)(F)F)c3cnccc32)cc1 [Compound P17, 3-((5-chloro-1-(4,4,4-trifluorobutyl)-1H-pyrrolo[3,2-b]pyridin-2-yl)-methyl)-1-(4-methoxyphenyl)-1H-imidazo[4,5-c]pyridin-2(3H)-one] yielded a CC50 at 3 days (in vitro) greater than 100000 nM and an EC50 (rgRSV224 virus) of 10 nM.
Work on CC(C)CCn1c(Cn2c(=O)n(C3(C)CC3)c3ccncc32)nc2nc(Cl)ccc21 [Compound P18, 3-((5-chloro-1-isopentyl-1H-imidazo[4,5-b]pyridin-2-yl)methyl)-1-(1-methylcyclopropyl)-1H-imidazo[4,5-c]pyridin-2(3H)-one] yielded a CC50 at 3 days (in vitro) greater than 100000 nM and an EC50 (rgRSV224 virus) of 2 nM.
For N#CCCCn1c(Cn2c(=O)n(-c3ncccn3)c3ccncc32)cc2cc(Cl)ccc21 [Compound P21, 4-(5-chloro-2-((2-oxo-1-(pyrimidin-2-yl)-1H-imidazo[4,5-c]pyridin-3(2H)-yl)methyl)-1H-indol-1-yl)butanenitrile], the CC50 at 3 days (in vitro) was greater than 100000 nM and the EC50 (rgRSV224 virus) was 6.31 nM.
CC(C)CCn1c(Cn2c(=O)n(-c3ccncc3)c3ccncc32)nc2nc(Cl)ccc21 [Compound P23, 3-((5-chloro-1-isopentyl-1H-imidazo[4,5-b]pyridin-2-yl)methyl)-1-(pyridin-4-yl)-1H-imidazo[4,5-c]pyridin-2(3H)-one] showed a CC50 at 3 days (in vitro) greater than 100000 nM and an EC50 (rgRSV224 virus) of 7.94 nM.
With COCCOc1ccc(-n2c(=O)n(Cc3cc4cc(Cl)ccc4n3CCCC#N)c3cnccc32)cc1 [Compound P28, 4-(5-chloro-2-((1-(4-(2-methoxyethoxy)phenyl)-2-oxo-1H-imidazo[4,5-c]pyridin-3(2H)-yl)methyl)-1H-indol-1-yl)butanenitrile] the CC50 at 3 days (in vitro) was greater than 100000 nM and the EC50 (rgRSV224 virus) was 0.2 nM.
Molecule N#CCCCn1c(Cn2c(=O)n(-c3ccc(OC(F)(F)F)cc3)c3ccncc32)cc2cc(Cl)ccc21 [Compound P29, 4-(5-chloro-2-((2-oxo-1-(4-(trifluoromethoxy)phenyl)-1H-imidazo[4,5-c]pyridin-3(2H)-yl)methyl)-1H-indol-1-yl)butanenitrile] has a CC50 at 3 days (in vitro) greater than 100000 nM and an EC50 (rgRSV224 virus) of 1.26 nM.
Molecule CS(=O)(=O)CCCn1c(Cn2c(=O)n(-c3ccc(Cl)cc3)c3ccncc32)cc2cc(Cl)ccc21 [Compound P30, 3-((5-chloro-1-(3-(methylsulfonyl)propyl)-1H-indol-2-yl)methyl)-1-(4-chlorophenyl)-1H-imidazo[4,5-c]pyridin-2(3H)-one] has a CC50 at 3 days (in vitro) greater than 100000 nM and an EC50 (rgRSV224 virus) of 1.58 nM.
In the case of O=c1n(Cc2cc3cc(Cl)ccc3n2CCCCF)c2cnccc2n1-c1ccc2ncccc2c1 [Compound P31, 3-((5-chloro-1-(4-fluorobutyl)-1H-indol-2-yl)methyl)-1-(quinolin-6-yl)-1H-imidazo[4,5-c]pyridin-2(3H)-one], the CC50 at 3 days (in vitro) is reported as greater than 100000 nM and the EC50 (rgRSV224 virus) is reported as 1.58 nM.
For Cn1ccnc1-n1c(=O)n(Cc2cc3cc(Cl)ccc3n2CCCC#N)c2cnccc21 [Compound P33, 4-(5-chloro-2-((1-(1-methyl-1H-imidazol-2-yl)-2-oxo-1H-imidazo[4,5-c]pyridin-3(2H)-yl)methyl)-1H-indol-1-yl)butanenitrile], the CC50 at 3 days (in vitro) was greater than 100000 nM and the EC50 (rgRSV224 virus) was 10 nM.
N#CCCCn1c(Cn2c(=O)n(-c3ccncc3)c3ccc(F)cc32)cc2cc(Cl)ccc21 [Compound P40, 4-(5-chloro-2-((6-fluoro-2-oxo-3-(pyridin-4-yl)-2,3-dihydro-1H-benzo[d]imidazol-1-yl)methyl)-1H-indol-1-yl)butanenitrile] gave a CC50 at 3 days (in vitro) greater than 100000 nM.
Molecule CS(=O)(=O)c1ccc(-n2c(=O)n(Cc3cc4cc(Cl)ccc4n3CCCC#N)c3cnccc32)cc1 [Compound P41, 4-(5-chloro-2-((1-(4-(methylsulfonyl)phenyl)-2-oxo-1H-imidazo[4,5-c]pyridin-3(2H)-yl)methyl)-1H-indol-1-yl)butanenitrile] has a CC50 at 3 days (in vitro) greater than 100000 nM and an EC50 (rgRSV224 virus) of 0.2 nM.
Work on N#CCCCn1c(Cn2c(=O)n(-c3ccncc3F)c3ccncc32)cc2cc(Cl)ccc21 [Compound P42, 4-(5-chloro-2-((1-(3-fluoropyridin-4-yl)-2-oxo-1H-imidazo[4,5-c]pyridin-3(2H)-yl)methyl)-1H-indol-1-yl)butanenitrile] yielded a CC50 at 3 days (in vitro) greater than 100000 nM and an EC50 (rgRSV224 virus) of 0.316 nM.
Molecule N#CCCCn1c(Cn2c(=O)n(-c3ccc4ncccc4c3)c3ccncc32)cc2cc(Cl)ccc21 [Compound P43, 4-(5-chloro-2-((2-oxo-1-(quinolin-6-yl)-1H-imidazo[4,5-c]pyridin-3(2H)-yl)methyl)-1H-indol-1-yl)butanenitrile] has a CC50 at 3 days (in vitro) greater than 100000 nM and an EC50 (rgRSV224 virus) of 0.398 nM.
